Data from ChEMBL document CHEMBL5042544, “Discovery of a Potent and Selective ATAD2 Bromodomain Inhibitor with Antiproliferative Activity in Breast Cancer Models” (J Med Chem, 2022).
Calls of active or inactive are those of the source. No cut-off for these calls is given here.

Key:
[1] = molecular target: T1, Bromodomain-containing protein 2 (Homo sapiens, UniProt P25440); experiment: Binding affinity to human BRD2 bromodomain 1 assessed as dissociation constant by BROMOscan method
Target sequence in this assay (P25440 whole entry, the tested form may be a part): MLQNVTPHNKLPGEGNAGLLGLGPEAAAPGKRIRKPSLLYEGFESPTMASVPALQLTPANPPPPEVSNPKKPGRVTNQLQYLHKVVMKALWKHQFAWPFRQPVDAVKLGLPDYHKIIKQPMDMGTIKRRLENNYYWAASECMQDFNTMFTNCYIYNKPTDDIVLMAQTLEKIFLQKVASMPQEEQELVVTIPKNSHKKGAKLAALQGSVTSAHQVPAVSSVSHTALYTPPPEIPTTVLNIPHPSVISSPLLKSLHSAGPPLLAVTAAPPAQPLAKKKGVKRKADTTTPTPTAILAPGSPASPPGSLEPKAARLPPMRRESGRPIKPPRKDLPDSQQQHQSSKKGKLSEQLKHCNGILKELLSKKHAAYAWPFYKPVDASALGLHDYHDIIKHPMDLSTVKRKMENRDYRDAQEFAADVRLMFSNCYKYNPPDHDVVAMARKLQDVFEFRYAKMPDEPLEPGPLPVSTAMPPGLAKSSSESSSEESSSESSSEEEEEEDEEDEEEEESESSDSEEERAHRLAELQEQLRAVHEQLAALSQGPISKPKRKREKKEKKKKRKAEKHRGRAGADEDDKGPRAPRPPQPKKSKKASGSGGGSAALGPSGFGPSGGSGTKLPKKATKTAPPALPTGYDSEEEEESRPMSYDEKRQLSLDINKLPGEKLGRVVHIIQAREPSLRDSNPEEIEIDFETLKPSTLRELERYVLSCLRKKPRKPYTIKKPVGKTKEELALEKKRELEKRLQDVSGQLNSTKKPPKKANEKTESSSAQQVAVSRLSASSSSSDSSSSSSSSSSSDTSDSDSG

[2] = molecular target: T2, ATPase family AAA domain-containing protein 2 (Homo sapiens, UniProt Q6PL18); experiment: Inhibition of GST-ATAD2 BD (951 to 1132 residues) (unknown origin) expressed in Escherichia coli BL21 (DE3) and biotinylated tetra-acetylated histone H4 peptides as substrate by TR-FRET artifact assay
T2 sequence (Q6PL18 whole entry): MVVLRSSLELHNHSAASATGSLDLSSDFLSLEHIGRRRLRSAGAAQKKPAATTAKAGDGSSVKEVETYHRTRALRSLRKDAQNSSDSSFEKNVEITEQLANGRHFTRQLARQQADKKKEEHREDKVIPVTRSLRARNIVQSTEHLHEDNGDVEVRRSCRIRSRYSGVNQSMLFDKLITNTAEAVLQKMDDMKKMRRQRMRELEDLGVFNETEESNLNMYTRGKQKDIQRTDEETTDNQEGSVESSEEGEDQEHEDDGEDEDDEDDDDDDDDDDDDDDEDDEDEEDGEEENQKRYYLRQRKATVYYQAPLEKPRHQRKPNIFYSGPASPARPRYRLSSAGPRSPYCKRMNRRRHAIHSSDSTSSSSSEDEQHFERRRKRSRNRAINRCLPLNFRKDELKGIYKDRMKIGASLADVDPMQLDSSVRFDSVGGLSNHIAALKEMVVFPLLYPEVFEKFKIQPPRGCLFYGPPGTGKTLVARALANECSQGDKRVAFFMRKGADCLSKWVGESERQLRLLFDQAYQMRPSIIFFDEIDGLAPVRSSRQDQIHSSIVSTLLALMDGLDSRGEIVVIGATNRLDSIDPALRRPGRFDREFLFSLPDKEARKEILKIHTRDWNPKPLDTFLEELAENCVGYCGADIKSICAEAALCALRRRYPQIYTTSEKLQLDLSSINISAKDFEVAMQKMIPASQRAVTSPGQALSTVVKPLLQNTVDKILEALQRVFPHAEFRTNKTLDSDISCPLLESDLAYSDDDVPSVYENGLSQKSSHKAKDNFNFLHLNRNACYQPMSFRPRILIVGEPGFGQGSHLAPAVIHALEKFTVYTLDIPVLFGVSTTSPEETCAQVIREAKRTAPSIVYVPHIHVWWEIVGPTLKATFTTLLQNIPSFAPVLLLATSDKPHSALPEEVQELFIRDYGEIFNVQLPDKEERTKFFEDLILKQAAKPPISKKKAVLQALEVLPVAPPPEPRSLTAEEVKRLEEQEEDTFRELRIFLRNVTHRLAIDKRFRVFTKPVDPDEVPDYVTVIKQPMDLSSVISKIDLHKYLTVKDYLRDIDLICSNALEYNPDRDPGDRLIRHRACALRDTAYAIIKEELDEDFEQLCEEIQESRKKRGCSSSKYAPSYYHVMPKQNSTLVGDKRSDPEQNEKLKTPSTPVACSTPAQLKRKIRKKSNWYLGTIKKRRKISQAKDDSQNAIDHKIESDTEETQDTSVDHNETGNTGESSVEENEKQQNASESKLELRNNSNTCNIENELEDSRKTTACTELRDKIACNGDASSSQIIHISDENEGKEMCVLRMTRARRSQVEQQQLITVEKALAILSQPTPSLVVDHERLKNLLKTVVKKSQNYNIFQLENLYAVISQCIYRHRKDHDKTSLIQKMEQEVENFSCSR

[3] = molecular target: Bromodomain testis-specific protein (Homo sapiens, UniProt Q58F21); experiment: Binding affinity to human BRDT bromodomain 1 assessed as residual activity at 300 nM by BROMOscan method relative to control
[4] = molecular target: Bromodomain-containing protein 4 (Homo sapiens, UniProt O60885); experiment: Binding affinity to human BRD4 bromodomain 1 assessed as residual activity at 300 nM by BROMOscan method relative to control
[5] = molecular target: T3, Bromodomain-containing protein 3 (Homo sapiens, UniProt Q15059); experiment: Binding affinity to human BRD3 bromodomain 2 assessed as residual activity at 300 nM by BROMOscan method relative to control
SK-BR-3 = experiment: Antiproliferative activity against human SK-BR-3 cells expressing BRD2 assessed as inhibition of colony formation at 0.01 to 10 uM measured after 14 to 21 days by alamarBlue based colony formation assay; type: functional, cell-based; details: dose 0.01-10 µM, time 14-21 day
Peregrin (Homo sapiens) = Peregrin (Homo sapiens) (UniProt P55201); experiment: Binding affinity to human […] bromodomain assessed as residual activity at 300 nM by BROMOscan method relative to control
[6] = molecular target: Histone acetyltransferase p300 (Homo sapiens, UniProt Q09472); experiment: Binding affinity to human EP300 bromodomain assessed as dissociation constant by BROMOscan method
[7] = molecular target: T1, Bromodomain-containing protein 2; experiment: Binding affinity to human BRD2 bromodomain 2 assessed as residual activity at 300 nM by BROMOscan method relative to control
Homo sapiens = species on record: Homo sapiens; experiment: Binding affinity to human ATAD2A assessed as residual activity at 300 nM by BROMOscan method relative to control
[8] = molecular target: Transcription initiation factor TFIID subunit 1-like (Homo sapiens) (UniProt Q8IZX4); experiment: Binding affinity to human TAF1L bromodomain 2 assessed as residual activity at 300 nM by BROMOscan method relative to control
Transcription initiation factor TFIID subunit 1-like (Homo sapiens), sequence (Q8IZX4 whole entry, the tested form may be a part): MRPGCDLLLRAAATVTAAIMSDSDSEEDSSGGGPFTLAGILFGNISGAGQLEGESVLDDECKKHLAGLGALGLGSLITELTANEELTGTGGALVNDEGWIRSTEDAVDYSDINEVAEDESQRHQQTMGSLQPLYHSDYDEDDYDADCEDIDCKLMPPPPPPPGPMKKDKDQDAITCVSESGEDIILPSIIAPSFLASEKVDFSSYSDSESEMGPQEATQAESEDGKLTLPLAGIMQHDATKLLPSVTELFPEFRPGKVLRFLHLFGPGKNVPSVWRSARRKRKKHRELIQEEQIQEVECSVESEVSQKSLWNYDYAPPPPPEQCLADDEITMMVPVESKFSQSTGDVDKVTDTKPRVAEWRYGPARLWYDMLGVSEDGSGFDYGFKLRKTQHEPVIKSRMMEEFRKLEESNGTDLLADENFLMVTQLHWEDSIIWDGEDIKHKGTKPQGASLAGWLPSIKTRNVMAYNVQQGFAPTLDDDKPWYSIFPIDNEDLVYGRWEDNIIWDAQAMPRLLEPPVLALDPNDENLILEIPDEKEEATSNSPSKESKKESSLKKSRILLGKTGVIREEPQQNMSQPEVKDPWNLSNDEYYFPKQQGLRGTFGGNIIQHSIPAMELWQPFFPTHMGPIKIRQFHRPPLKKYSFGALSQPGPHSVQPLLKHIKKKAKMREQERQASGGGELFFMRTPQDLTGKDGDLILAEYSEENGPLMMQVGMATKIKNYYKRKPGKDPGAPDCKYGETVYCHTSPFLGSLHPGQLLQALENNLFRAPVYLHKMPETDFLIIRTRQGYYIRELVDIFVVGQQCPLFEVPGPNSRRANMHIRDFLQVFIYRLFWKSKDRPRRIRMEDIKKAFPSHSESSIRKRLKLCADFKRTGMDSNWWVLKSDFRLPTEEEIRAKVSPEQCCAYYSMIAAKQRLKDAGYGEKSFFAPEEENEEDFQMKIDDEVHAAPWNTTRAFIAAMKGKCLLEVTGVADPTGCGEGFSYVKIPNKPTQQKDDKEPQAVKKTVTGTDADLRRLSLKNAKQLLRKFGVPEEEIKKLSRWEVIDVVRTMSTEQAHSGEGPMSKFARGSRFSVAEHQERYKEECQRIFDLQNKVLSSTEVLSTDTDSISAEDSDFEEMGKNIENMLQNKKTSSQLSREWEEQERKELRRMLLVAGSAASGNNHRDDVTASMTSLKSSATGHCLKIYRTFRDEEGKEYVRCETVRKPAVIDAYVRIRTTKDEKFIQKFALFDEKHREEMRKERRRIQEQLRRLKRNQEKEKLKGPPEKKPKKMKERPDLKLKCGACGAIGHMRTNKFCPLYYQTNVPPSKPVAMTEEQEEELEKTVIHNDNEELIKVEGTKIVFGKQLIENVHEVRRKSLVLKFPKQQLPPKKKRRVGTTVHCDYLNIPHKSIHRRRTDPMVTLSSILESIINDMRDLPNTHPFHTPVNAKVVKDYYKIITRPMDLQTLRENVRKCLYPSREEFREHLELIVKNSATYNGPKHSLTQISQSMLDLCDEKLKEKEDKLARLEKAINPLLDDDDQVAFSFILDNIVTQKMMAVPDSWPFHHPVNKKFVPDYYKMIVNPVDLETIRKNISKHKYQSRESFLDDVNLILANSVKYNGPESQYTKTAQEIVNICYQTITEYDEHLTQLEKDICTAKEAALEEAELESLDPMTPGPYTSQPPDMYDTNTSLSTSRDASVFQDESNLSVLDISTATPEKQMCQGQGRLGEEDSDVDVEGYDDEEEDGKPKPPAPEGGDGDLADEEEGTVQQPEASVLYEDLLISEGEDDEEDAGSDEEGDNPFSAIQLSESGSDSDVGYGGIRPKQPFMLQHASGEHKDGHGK

[9] = molecular target: T2, ATPase family AAA domain-containing protein 2; experiment: Binding affinity to ATAD2 bromodomain (981 to 1108 residues) (unknown origin) expressed in Escherichia coli BL21 (DE3) by BROMOscan method
[10] = molecular target: T1, Bromodomain-containing protein 2; experiment: Binding affinity to human BRD2 bromodomain 2 assessed as dissociation constant by BROMOscan method
Target sequence in this assay (P25440 whole entry, the tested form may be a part): as the sequence (P25440 whole entry, the tested form may be a part) above

[11] = molecular target: Bromodomain-containing protein 9 (Homo sapiens) (UniProt Q9H8M2); experiment: Binding affinity to human BRD9 bromodomain assessed as residual activity at 300 nM by BROMOscan method relative to control
Bromodomain-containing protein 9 (Homo sapiens), sequence (Q9H8M2 whole entry): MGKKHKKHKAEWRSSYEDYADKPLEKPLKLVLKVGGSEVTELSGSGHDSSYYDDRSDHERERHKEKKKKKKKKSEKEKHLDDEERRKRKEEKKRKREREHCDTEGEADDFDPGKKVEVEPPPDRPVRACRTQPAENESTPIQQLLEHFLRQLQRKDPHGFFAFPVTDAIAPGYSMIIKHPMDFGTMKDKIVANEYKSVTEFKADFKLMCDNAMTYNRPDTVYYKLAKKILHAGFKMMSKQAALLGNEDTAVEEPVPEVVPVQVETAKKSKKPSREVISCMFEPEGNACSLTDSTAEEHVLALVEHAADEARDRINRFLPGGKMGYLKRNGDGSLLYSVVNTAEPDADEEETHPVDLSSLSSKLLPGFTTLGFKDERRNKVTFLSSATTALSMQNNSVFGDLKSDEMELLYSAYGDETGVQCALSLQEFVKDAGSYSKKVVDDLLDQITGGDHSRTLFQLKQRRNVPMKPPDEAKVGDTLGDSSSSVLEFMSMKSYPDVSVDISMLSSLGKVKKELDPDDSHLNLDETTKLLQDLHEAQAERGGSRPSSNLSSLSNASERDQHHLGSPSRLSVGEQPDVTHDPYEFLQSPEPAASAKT

[12] = molecular target: T3, Bromodomain-containing protein 3; experiment: Binding affinity to human BRD3 bromodomain 2 assessed as dissociation constant by BROMOscan method
Target sequence in this assay (Q15059 whole entry): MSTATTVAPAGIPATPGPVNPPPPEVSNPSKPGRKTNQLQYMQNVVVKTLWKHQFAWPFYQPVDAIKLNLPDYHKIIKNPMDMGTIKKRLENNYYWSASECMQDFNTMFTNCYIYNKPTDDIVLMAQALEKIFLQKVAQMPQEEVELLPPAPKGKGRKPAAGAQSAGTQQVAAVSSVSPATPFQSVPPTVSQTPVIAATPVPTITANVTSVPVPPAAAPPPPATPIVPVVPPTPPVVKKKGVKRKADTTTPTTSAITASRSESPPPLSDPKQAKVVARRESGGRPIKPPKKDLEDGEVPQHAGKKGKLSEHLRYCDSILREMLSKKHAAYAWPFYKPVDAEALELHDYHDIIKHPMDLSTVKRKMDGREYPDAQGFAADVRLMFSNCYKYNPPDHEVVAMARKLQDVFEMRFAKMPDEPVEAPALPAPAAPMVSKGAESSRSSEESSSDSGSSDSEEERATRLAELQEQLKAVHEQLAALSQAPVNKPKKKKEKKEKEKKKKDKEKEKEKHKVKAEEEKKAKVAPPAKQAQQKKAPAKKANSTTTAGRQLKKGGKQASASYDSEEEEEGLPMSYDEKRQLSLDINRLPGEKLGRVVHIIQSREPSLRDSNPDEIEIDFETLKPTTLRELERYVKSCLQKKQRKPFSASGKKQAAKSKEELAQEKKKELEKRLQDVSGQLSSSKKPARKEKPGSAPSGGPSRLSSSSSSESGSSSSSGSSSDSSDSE

EVSA-T = experiment: Antiproliferative activity against human EVSA-T cells expressing ATAD2 assessed as inhibition of colony formation at 0.01 to 10 uM measured after 14 to 21 days by AlamarBlue staining based colony formation assay; type: functional, cell-based; details: dose 0.01-10 µM, time 14-21 day
Protein polybromo-1 = Protein polybromo-1 (Homo sapiens, UniProt Q86U86); experiment: Binding affinity to human PBRM1 bromodomain 5 assessed as residual activity at 300 nM by BROMOscan method relative to control
[13] = molecular target: Bromodomain and WD repeat-containing protein 1 (Homo sapiens, UniProt Q9NSI6); experiment: Binding affinity to human WDR9 bromodomain 2 assessed as dissociation constant by BROMOscan method
[14] = molecular target: CREB-binding protein (Homo sapiens) (UniProt Q92793); experiment: Binding affinity to human CREBBP bromodomain assessed as residual activity at 300 nM by BROMOscan method relative to control
[15] = molecular target: Histone acetyltransferase KAT2B (Homo sapiens, UniProt Q92831); experiment: Binding affinity to human PCAF bromodomain assessed as dissociation constant by BROMOscan method
Histone acetyltransferase KAT2B, sequence (Q92831 whole entry): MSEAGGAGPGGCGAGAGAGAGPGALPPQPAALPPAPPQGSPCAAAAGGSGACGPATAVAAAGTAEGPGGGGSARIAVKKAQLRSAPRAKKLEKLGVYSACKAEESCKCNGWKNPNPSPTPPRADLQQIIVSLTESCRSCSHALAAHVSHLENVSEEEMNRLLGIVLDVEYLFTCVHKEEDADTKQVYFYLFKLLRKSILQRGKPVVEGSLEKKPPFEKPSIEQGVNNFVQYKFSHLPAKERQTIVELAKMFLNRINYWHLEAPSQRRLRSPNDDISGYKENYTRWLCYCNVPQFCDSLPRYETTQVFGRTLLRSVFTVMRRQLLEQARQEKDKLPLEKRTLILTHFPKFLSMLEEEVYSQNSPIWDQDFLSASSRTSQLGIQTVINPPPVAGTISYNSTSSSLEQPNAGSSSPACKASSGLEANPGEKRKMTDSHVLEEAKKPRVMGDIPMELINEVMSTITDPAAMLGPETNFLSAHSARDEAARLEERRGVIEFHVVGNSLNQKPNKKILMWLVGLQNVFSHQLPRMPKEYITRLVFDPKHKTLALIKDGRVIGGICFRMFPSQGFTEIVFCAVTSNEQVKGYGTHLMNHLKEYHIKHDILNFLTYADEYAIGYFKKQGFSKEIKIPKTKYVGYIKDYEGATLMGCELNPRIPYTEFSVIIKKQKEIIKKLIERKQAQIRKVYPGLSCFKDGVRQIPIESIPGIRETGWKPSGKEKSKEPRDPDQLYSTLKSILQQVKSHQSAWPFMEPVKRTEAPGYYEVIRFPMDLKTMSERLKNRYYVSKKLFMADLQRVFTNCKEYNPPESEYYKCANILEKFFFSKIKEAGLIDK

Kd [1]: 126 nM | IC50 [2]: > 25100 nM | Activity [3]: 48% | Activity [4]: 86% | Activity [5]: 56% | Activity (Peregrin (Homo sapiens)): 79% | Kd [6]: > 3160 nM | Activity [7]: 31% | Activity (Homo sapiens): 0% | Activity [8]: 82% | Kd [9]: 1.26 nM | Kd [10]: 200 nM | Activity [11]: 64% | Kd [12]: 200 nM | Activity (Protein polybromo-1): 52% | Kd [13]: > 316 nM | Activity [14]: 61% | Kd [15]: > 316 nM
Compound: Cc1nnc2c(NC3CCN(CC(C)(C)F)CC3)cc(C(=O)N3[C@@H]4c5ccccc5C[C@H]3C(=O)N[C@@H]4C(C)C)nn12
Activity (SK-BR-3): inactive | Activity (EVSA-T): Dose-Dependent Effect
